Laboratory results: paper PMC6934184, “Selective DNA-PKcs inhibition extends the therapeutic index of localized radiotherapy and chemotherapy” (The Journal of Clinical Investigation, 2019)
Values joined by “and” are separate entries in the source; they are usually repeats but may differ in a detail not shown here. Equal entries are not always repeated.

Experiments:
SJSA-1 tumor xenografts = assay: subcutaneous SJSA-1 xenograft with parenteral etoposide; format: in vivo, CD-1 nude mice; conditions: etoposide 5 mg/kg i.p., 5 consecutive days
Method: Combining systemic administration of etoposide + NU5455 in vivo
SJSA1 cells (1 x 10^7 cells/mouse in 50 µl, 50% v/v Matrigel) were implanted s.c. into the right flank of female CD-1 nude mice. When tumor volumes reached 103-121 mm3 mice were treated daily, for five consecutive days, with NU5455 (30 mg/kg or 100 mg/kg once -daily p.o. in NMP:Encapsin (30% aq):PEG4000 (1:6:3 v/v/v) ) or vehicle, followed immediately with etoposide (5 mg/kg i.p. in saline). Body weight and tumor volume measurements were taken daily during treatment and three times per week post -treatment. Tumor volume was calculated from two-dimensional electronic caliper measurements (Mitutoyo) using the equation ‘width2 x length/2’, where width was the smaller side, and length the longer dimension of the tumor. Mice were humanely killed when; (i) an adverse effect on clinical condition was evident, (ii) tumor bilateral measurements reached 10 mm x 10 mm, (iii) a tumor measurement in any di mension reached 15 mm, or (iv) at study termination. […]

MCF7 cells = assay: clonogenic survival with 2 Gy IR, DNA repair inhibitors; format: cell-based, Human; conditions: 1 h before and 24 h after IR
Method: Cells were washed in phosphate-buffered saline (PBS), trypsinized and counted. Cells were then reseeded at a known density in drug-free medium into 10 cm dishes (100 - 10 000 cells/dish) and incubated for 8-21 days. Colonies were fixed using Carnoys fixture (75% v/v methanol, 25% v/v acetic acid, Fisher), stained with crystal violet (0.4% w/v in water), and counted using a ColCount automated colony counter (Oxford Optronics). Cell survival was calculated as a percentage of the untreated control.
Alternatively, exponentially growing MCF7 cells were exposed to a range of concentrations of the PARP inhibitor rucaparib, the ATM inhibitor KU55933, the ATR inhibitor VE-821 or NU5455 for 1 hour prior to irradiation with 2 Gy. Cells were then incubated in the continued presence of the DNA repair inhibitors for a further 24 hours prior to replating. […]

[1] = tested on: NHEJ-mediated DSB repair in HEK293T cells; assay: NHEJ plasmid repair assay; format: cell-based, Human; conditions: 10 µM; 24 hours; AfeI or ScaI linearized plasmid
Method: The ability of NU5455 to impair the nonhomologous end joining (NHEJ) ability of cells was assessed using a modified version of a DNA repair assay developed by Nagel et al. ([52]), which measures the repair of a plasmid encoding blue fluorescent protein (BFP) and GFP linearized by either an ScaI or an AfeI restriction digestion. Full experimental details are given in Supplemental Methods.
(§1) Membranes were then washed in TBST and incubated with HRP-conjugated goat anti-mouse or anti-rabbit antibodies (P0447 and P0448 respectively, Dako) in 5% (w/v) milk/TBST at room temperature for 1-2 hours. Conjugates were detected using Clarity Western ECL Substrate (BioRad) and chemiluminescence imaged using the Fuji LAS-3000 Luminescent Image Analyzer System (Fujifilm).
Densitometry analysis was performed using AIDA Image Analyzer software (Raytest). The intensity of all bands was determined following a background subtraction, and the level of pDNA-PKcs stimulation determined by subtracting basal unstimulated pDNA-PKcs Ser2056 levels. pDNA-PKcs Ser2056 band intensity was calculated relative to total DNA-PKcs band intensity, and is given as percentage expression relative to irradiated, DMSO-treated cells. […]
violet laser with 440/50 emission filter to detect blue fluorescence using the VL1 channel. […]
Data were analyzed by FCS Express 6 Flow Research Edition (De Novo Software). […]

PI3K = assay: IGF-1-stimulated phospho-AKT Ser473 in MCF7 cells, Western blot; format: cell-based, Human; conditions: 1 μM, 50 ng/mL IGF-1, 30 min
Method: (§2) Exponentially growing MCF7 cells were exposed to a range of concentrations of NU5455 and NU7441 (0.03–10 μM) for 1 hour. To assess the ability of NU5455 and NU7441 to inhibit autophosphorylation of DNA-PKcs at Ser2056, cells were treated with 10 Gy irradiation and incubated for 30 minutes. Alternatively, to investigate the effects of NU5455 and NU7441 against PI3K-dependent phosphorylation of AKT at Ser473, cells were treated with 50 ng/mL insulin-like growth factor-1 (IGF-1; Invitrogen) for 30 minutes. Cell lysates were prepared for the detection of p–DNA-PKcs Ser2056 and total DNA-PKcs, or p–AKT Ser473 and total AKT, respectively, using Western blotting. […]
(§3) Protein lysates were quantified using the Pierce BCA Protein Assay (ThermoFisher). […]
as §1, with “(Fujifilm). […]” for “(Fujifilm).”
(§4) Alternatively, basal pAKT Ser473 levels were subtracted from all other pAKT bands, and pAKT band intensity calculated relative to total AKT expression and given as a percentage relative to IGF-1 stimulated, DMSO-treated cells. […]

DNA-PK = DNA-PK (Homo sapiens, UniProt P78527); assay: radiation-induced phospho-DNA-PK Ser2056 in MCF7 cells, Western blot; format: cell-based; set-up: endogenous in cells; host or cells: MCF7; conditions: 1 h pretreatment, 30 min after 10 Gy IR, read-out: IC50, radiation-induced activation of DNA-PK (phospho–DNA-PK Ser2056)
Method: as §2, §3
as §1, with “(Fujifilm). […]” for “(Fujifilm).”
as §4

B16F10 = assay: growth inhibition, 72 hour incubation; format: cell-based, Mouse; conditions: read-out: Nutlin-3a GI50, mean with standard deviation
Method: (§5) Supplemental Table 3. TP53 status of cell lines used.
(§6) incubation with the compound (see Supplemental Methods). GI50 values shown represent either individual determinations or the
(§7) References: (1) Melnikova VO et al., Oncogene, […]

NIH3T3 = assay: growth inhibition, 72 hour incubation; format: cell-based, Mouse; conditions: read-out: Nutlin-3a GI50, mean with standard deviation
Method: as §5, §6, §7

M2-10B4 = assay: growth inhibition, 72 hour incubation; format: cell-based, Mouse; conditions: read-out: Nutlin-3a GI50, mean with standard deviation
Method: as §5, §6, §7

4T1 = assay: growth inhibition, 72 hour incubation; format: cell-based, Mouse; conditions: read-out: Nutlin-3a GI50, individual determinations
Method: as §5, §6, §7

MCF7 = assay: growth inhibition, 72 hour incubation; format: cell-based, Human; conditions: read-out: Nutlin-3a GI50, mean with standard deviation
Method: MCF7 Human WT 2.3 ± 0.20 COSMIC […]
as §5, §6, §7

SJSA-1 = assay: growth inhibition, 72 hour incubation; format: cell-based, Human; conditions: read-out: Nutlin-3a GI50, mean with standard deviation
Method: SJSA-1 Human WT 1.9 ± 0.19 COSMIC […]
as §5, §6, §7

HepG2 = assay: growth inhibition, 72 hour incubation; format: cell-based, Human; conditions: read-out: Nutlin-3a GI50, mean with standard deviation
Method: HepG2 Human WT 1.0 ± 0.18 COSMIC […]
as §5, §6, §7

A549 = assay: growth inhibition, 72 hour incubation; format: cell-based, Human; conditions: read-out: Nutlin-3a GI50, individual determinations
Method: as §5, §6, §7

Hep3B = assay: growth inhibition, 72 hour incubation; format: cell-based, Human; conditions: read-out: Nutlin-3a GI50, individual determinations
Method: as §5, §6, §7

SN40R2 = assay: growth inhibition, 72 hour incubation; format: cell-based, Human; conditions: read-out: Nutlin-3a GI50, individual determination
Method: as §5, §6, §7

NHDF = assay: growth inhibition, 72 hour incubation; format: cell-based, Human; conditions: read-out: Nutlin-3a GI50, individual determination
Method: as §5, §6, §7

Calu6 = assay: growth inhibition, 72 hour incubation; format: cell-based, Human; conditions: read-out: Nutlin-3a GI50, individual determinations
Method: as §5, §6, §7

Huh7 = assay: growth inhibition, 72 hour incubation; format: cell-based, Human; conditions: read-out: Nutlin-3a GI50, individual determinations
Method: as §5, §6, §7

MCF10a = assay: growth inhibition, 72 hour incubation; format: cell-based, Human; conditions: read-out: Nutlin-3a GI50, mean with standard deviation
Method: as §5, §6, §7

HCT116 = assay: growth inhibition, 72 hour incubation; format: cell-based, Human; conditions: read-out: Nutlin-3a GI50, mean with standard deviation
Method: as §5, §6, §7

COc1cc([C@@H]2c3cc4c(cc3[C@@H](O[C@@H]3O[C@@H]5CO[C@@H](C)O[C@H]5[C@H](O)[C@H]3O)[C@H]3COC(=O)[C@H]23)OCO4)cc(OC)c1O [Etoposide, etoposide, reference compound]
antitumor effect, monotherapy (SJSA-1 tumor xenografts): relatively marginal antitumor effect

O=c1cc(-c2cccc3c2Sc2ccccc2S3)oc(N2CCOCC2)c1 [KU55933, reference compound]
SER (sensitization enhancement ratio), enhancement of 2 Gy IR clonogenic cell killing (MCF7 cells; at 10 μM): 2.3 fold | repair of DNA-DSBs (NHEJ plasmid repair) [1]: NU5455 but not the ATM inhibitor KU55933 inhibits NHEJ-mediated DSB repair

O=c1cc(N2CCOCC2)oc2c(-c3cccc4c3sc3ccccc34)cccc12 [NU7441, reference compound]
inhibition of IGF/PI3K-stimulated signaling response (phospho–AKT Ser473) (PI3K): 40% ± 7% | IC50 (DNA-PK): 405 nM

COc1ccc(C2=N[C@@H](c3ccc(Cl)cc3)[C@@H](c3ccc(Cl)cc3)N2C(=O)N2CCNC(=O)C2)c(OC(C)C)c1 [Nutlin-3a]
GI50 (B16F10): 5700 ± 1800 nM | GI50 (NIH3T3): 4000 ± 1100 nM | GI50 (M2-10B4): 3300 ± 640 nM | GI50 (4T1): > 30000 nM | GI50 (MCF7): 2300 ± 200 nM | GI50 (SJSA-1): 1900 ± 190 nM | GI50 (HepG2): 1000 ± 180 nM | GI50 (A549): 2400 nM and 2900 nM | GI50 (Hep3B): > 30000 nM | GI50 (SN40R2): > 30000 nM | GI50 (NHDF): 2700 nM | GI50 (Calu6): > 30000 nM | GI50 (Huh7): > 10000 nM and 27000 nM | GI50 (MCF10a): 5100 ± 2800 nM | GI50 (HCT116): 2100 ± 710 nM

CS(=O)(=O)c1ccc(-c2cnc(N)c(C(=O)Nc3ccccc3)n2)cc1 [VE-821]
SER (sensitization enhancement ratio), enhancement of 2 Gy IR clonogenic cell killing (MCF7 cells; at 1 μM): 1.6 fold

CNCc1ccc(-c2[nH]c3cc(F)cc4c3c2CCNC4=O)cc1 [rucaparib]
SER (sensitization enhancement ratio), enhancement of 2 Gy IR clonogenic cell killing (MCF7 cells; at 1 μM): 1.4 fold
